Target: T1, hNav1.8 (Homo sapiens, UniProt Q9Y5Y9)
T1 construct: host or cells: HEK cells, stably transfected
Assay: hNav1.8 whole-cell patch-clamp electrophysiology (conventional or PatchXpress 7000) in stably transfected HEK cells
Type: cell-based
Conditions: estimated IC50 calculated from single point % inhibition; HEK cells expressing hNav1.8; 8 sec prepulse to V1/2, 20 msec step to 0 mV; average of replicates; read-out: Nav1.8 EIC50
Text: The ability of the benzimidazole derivatives of the formula (I) to inhibit the Nav1.8 channel may be measured using the assay described below.
HEK cells stably transfected with hNav1.8, purchased from Millipore (Millipore Corp., Billerica, Mass. 01821), were maintained according to manufacturer's instructions. For electrophysiological studies, cells were removed from the culture flask by brief trypsinization and re-plated at low density onto glass cover slips. Cells were typically used for electrophysiological experiments within 24 to 72 h after plating.
Cover slips containing HEK cells expressing hNav1.8 were placed in a bath on the stage of an inverted microscope and perfused (approximately 1 ml/min) with extracellular solution of the following composition: 138 mM NaCl, 2 mM CaCl2, 5.4 mM KCl, 1 mM MgCl2, 10 mM glucose, and 10 mM HEPES, pH 7.4, with NaOH. […] The osmolarity of the extracellular and intracellular solutions was 300 mOsm/kg and 295 mOsm/kg, respectively. All recordings were made at room temperature (22-24° C.) using AXOPATCH 200B amplifiers and PCLAMP software (Axon Instruments, Burlingame, Calif.).
hNav1.8 currents in HEK cells were measured using the whole-cell configuration of the patch-clamp technique (Hamill et al., 1981). Uncompensated series resistance was typically 2 to 5 mega ohms and >85% series resistance compensation was routinely achieved. As a result, voltage errors were negligible and no correction was applied. Current records were acquired at 20 to 50 KHz and filtered at 5 to 10 KHz.
HEK cells stably transfected with hNav1.8 were viewed under Hoffman contrast optics and placed in front of an array of flow pipes emitting either control or compound-containing extracellular solutions. All compounds were dissolved in dimethyl sulfoxide to make 10 mM stock solutions, which were then diluted into extracellular solution to attain the final concentrations desired.
The voltage-dependence of inactivation was determined by applying a series of depolarizing prepulses (8 sec long in 10 mV increments) from a negative holding potential. The voltage was then immediately stepped to 0 mV to assess the magnitude of the sodium current. Currents elicited at 0 mV were plotted as a function of prepulse potential to allow estimation of the voltage at which 50% of the channels were inactivated (midpoint of inactivation or V1/2). Compounds were tested for their ability to inhibit hNav1.8 sodium channels by activating the channel with a 20 msec voltage step to 0 mV following an 8 second conditioning prepulse to the empirically determined V1/2. Compound effect (% inhibition) was determined by difference in current amplitude before and after application of test compounds. For ease of comparison, “estimated IC50” values were calculated from single point electrophysiology data by the following equation, (tested concentration, uM)×(100-% inhibition/% inhibition). Inhibition values<20% and >80% were excluded from the calculation.
In some cases electrophysiological assays were conducted with PatchXpress 7000 hardware and associated software (Molecular Devices Corp). All assay buffers and solutions were identical to those used in conventional whole-cell voltage clamp experiments described above. hNav1.8 cells were grown as above to 50%-80% confluency and harvested by trypsinization. Trypsinized cells were washed and resuspended in extracellular buffer at a concentration of 1×10^6 cells/ml. The onboard liquid handling facility of the PatchXpress was used for dispensing cells and application of test compounds. Determination of the voltage midpoint of inactivation was as described for conventional whole-cell recordings. Cells were then voltage-clamped to the empirically determined V1/2 and current was activated by a 20 msec voltage step to 0 mV.
Estimated IC50 values for the compounds of formula (I) exemplified above are as follows. […]

T1 sequence (Q9Y5Y9 whole entry): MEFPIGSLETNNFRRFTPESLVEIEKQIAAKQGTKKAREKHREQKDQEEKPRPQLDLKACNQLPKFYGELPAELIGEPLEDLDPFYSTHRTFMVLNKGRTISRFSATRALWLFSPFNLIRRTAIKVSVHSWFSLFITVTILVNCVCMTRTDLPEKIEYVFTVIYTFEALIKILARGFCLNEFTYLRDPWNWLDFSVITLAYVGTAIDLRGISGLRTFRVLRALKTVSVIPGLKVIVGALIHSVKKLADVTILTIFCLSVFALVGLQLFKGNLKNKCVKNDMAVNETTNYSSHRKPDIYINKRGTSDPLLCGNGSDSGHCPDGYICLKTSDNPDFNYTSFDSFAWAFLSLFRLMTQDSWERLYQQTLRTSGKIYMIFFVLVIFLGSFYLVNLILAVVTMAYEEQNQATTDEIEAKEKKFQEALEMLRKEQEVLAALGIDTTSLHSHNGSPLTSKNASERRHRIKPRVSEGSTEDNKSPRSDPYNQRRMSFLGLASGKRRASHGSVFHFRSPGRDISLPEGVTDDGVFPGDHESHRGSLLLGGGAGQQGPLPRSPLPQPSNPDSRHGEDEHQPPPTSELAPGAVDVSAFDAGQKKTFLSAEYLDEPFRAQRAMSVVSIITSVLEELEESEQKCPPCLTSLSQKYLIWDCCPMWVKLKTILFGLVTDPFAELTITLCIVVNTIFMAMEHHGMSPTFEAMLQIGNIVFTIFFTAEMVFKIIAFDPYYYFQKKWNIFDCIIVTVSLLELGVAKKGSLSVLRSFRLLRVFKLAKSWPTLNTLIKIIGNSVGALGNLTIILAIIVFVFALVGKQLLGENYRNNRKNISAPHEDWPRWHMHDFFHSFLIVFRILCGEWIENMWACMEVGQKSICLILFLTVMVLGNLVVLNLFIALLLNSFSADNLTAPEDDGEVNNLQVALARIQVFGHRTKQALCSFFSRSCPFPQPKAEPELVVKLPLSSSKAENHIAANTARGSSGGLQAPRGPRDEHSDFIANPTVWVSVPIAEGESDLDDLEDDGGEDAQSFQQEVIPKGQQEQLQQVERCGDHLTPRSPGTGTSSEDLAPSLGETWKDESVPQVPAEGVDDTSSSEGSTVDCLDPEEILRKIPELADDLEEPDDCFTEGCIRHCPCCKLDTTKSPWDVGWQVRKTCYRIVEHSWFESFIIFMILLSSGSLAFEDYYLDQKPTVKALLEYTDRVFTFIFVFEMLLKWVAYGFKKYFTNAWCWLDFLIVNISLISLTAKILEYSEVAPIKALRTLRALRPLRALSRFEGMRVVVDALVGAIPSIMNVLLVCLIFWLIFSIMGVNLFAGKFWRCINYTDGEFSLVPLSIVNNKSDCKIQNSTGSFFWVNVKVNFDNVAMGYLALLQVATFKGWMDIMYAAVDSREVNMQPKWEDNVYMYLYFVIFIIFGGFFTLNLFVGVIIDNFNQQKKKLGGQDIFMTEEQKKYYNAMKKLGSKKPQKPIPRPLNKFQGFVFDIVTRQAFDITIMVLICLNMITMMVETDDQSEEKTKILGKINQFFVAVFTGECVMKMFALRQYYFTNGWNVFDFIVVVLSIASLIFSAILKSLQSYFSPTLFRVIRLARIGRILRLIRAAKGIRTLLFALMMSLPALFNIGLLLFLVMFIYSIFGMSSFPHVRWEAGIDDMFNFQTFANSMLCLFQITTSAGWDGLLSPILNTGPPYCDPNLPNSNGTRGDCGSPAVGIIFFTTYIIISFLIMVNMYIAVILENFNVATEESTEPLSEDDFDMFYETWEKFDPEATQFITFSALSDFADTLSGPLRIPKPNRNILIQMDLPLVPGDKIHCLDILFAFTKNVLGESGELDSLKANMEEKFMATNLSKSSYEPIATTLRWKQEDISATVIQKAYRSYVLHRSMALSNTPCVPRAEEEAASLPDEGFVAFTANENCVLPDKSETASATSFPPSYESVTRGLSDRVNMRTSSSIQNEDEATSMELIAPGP

Compound | IC50
CO[C@H](C)[C@H](N)c1nc2cc(-c3ccccc3C#N)ccc2[nH]1 [Example 77, 2-{2-[(1R,2R)-1-Amino-2-methoxypropyl]-1H-benzimidazol-5-yl}benzonitrile] | 0.483 µM
C[C@@H](O)[C@H](N)c1nc2cc(C(C)(C)C)ccc2[nH]1 [Example 78, (1R,2R)-1-Amino-1-(5-tert-butyl-1H-benzimidazol-2-yl)propan-2-ol] | 0.0593 µM
CN[C@H](c1nc2cc(C(C)(C)C)ccc2[nH]1)[C@@H](C)O [Example 79, (1R,2R)-1-(5-tert-Butyl-1H-benzimidazol-2-yl)-1-(methylamino)propan-2-ol] | 0.168 µM
CC(C)(C)c1ccc2[nH]c([C@](C)(N)CO)nc2c1 [Example 80, (2S)-2-Amino-2-(5-tert-butyl-1H-benzimidazol-2-yl)propan-1-ol] | 0.0876 µM
CC[C@H](N)c1nc2cc(-c3ccc(C#N)cc3)ccc2[nH]1 [Example 81, 4-{2-[(1S)-1-Aminopropyl]-1H-benzimidazol-5-yl}benzonitrile] | 0.0828 µM
N#Cc1ccc(-c2ccc3[nH]c([C@@H](N)CO)nc3c2)cc1 [Example 82, 4-{2-[(1R)-1-Amino-2-hydroxyethyl]-1H-benzimidazol-5-yl}benzonitrile] | 0.323 µM
CO[C@H](C)[C@@H](N)c1nc2cc(C(C)(C)C)ccc2[nH]1 [Example 83, (1S,2R)-1-(5-tert-Butyl-1H-benzimidazol-2-yl)-2-methoxypropan-1-amine] | 0.872 µM
CO[C@H](C)[C@H](N)c1nc2cc(-c3ccc(C#N)cc3Cl)ccc2[nH]1 [Example 84, 4-{2-[(1R,2R)-1-Amino-2-methoxypropyl]-1H-benzimidazol-5-yl}-3-chlorobenzonitrile] | 0.0819 µM
CO[C@H](C)[C@H](N)c1nc2cc(-c3ccc(C#N)c(F)c3)ccc2[nH]1 [Example 85, 4-{2-[(1R,2R)-1-Amino-2-methoxypropyl]-1H-benzimidazol-5-yl}-2-fluorobenzonitrile] | 0.0105 µM
CO[C@H](C)[C@H](N)c1nc2cc(-c3ccc(C#N)cc3C(F)(F)F)ccc2[nH]1 [Example 86, 4-{2-[(1R,2R)-1-Amino-2-methoxypropyl]-1H-benzimidazol-5-yl}-3-(trifluoromethyl)-benzonitrile] | 0.111 µM
CO[C@H](C)[C@H](N)c1nc2cc(-c3cc(F)c(C#N)c(F)c3)ccc2[nH]1 [Example 87, 4-{2-[(1R,2R)-1-Amino-2-methoxypropyl]-1H-benzimidazol-5-yl}-2,6-difluorobenzonitrile] | 1.33 µM
C[C@@H](O)[C@H](N)c1nc2cc(-c3ccc(C#N)c(C#N)c3)ccc2[nH]1 [Example 88, 4-{2-[(1R,2R)-1-Amino-2-hydroxypropyl]-1H-benzimidazol-5-yl}benzene-1,2-dicarbonitrile] | 0.993 µM
C[C@@H](O)[C@H](N)c1nc2cc(-c3cc(F)c(C#N)c(F)c3)ccc2[nH]1 [Example 89, 4-{2-[(1R,2R)-1-Amino-2-hydroxypropyl]-1H-benzimidazol-5-yl}-2,6-difluorobenzonitrile] | 2.39 µM
CO[C@H](C)[C@H](N)c1nc2cc(-c3ccc(C#N)cc3F)ccc2[nH]1 [Example 90, 4-{2-[(1R,2R)-1-Amino-2-methoxypropyl]-1H-benzimidazol-5-yl}-3-fluorobenzonitrile] | 0.0187 µM
C[C@H](OC(N)=O)[C@H](N)c1nc2cc(C(C)(C)C)ccc2[nH]1 [Example 106, (1R,2S)-1-Amino-1-(5-tert-butyl-1H-benzimidazol-2-yl)propan-2-yl carbamate] | 0.035 µM
C[C@@H](OC(N)=O)[C@H](N)c1nc2cc(C(C)(C)C)ccc2[nH]1 [Example 107, (1R,2R)-1-Amino-1-(6-tert-butyl-1H-benzimidazol-2-yl)propan-2-yl carbamate] | 0.356 µM

Next, values leading:

IC50 | Compound
0.666 µM | CO[C@H](C)[C@H](N)c1nc2cc(-c3ccc(C#N)cc3)c(F)cc2[nH]1 [Example 91, 4-{2-[(1R,2R)-1-Amino-2-methoxypropyl]-6-fluoro-1H-benzimidazol-5-yl}benzonitrile]
0.0175 µM | CO[C@H](C)[C@H](N)c1nc2cc(-c3ccc(C#N)cc3)ccc2[nH]1 [Example 92, 4-{2-[(1R,2R)-1-Amino-2-methoxypropyl]-1H-benzimidazol-5-yl}benzonitrile]
0.746 µM | CO[C@@H](C)[C@@H](N)c1nc2cc(-c3ccc(C#N)cc3)ccc2[nH]1 [Example 93, 4-{2-[(1S,2S)-1-Amino-2-methoxypropyl]-1H-benzimidazol-5-yl}benzonitrile]
1.08 µM | CO[C@@H](C)[C@@H](N)c1nc2cc(C(C)(C)C)ccc2[nH]1 [Example 94, (1S,2S)-1-(5-tert-Butyl-1H-benzimidazol-2-yl)-2-methoxypropan-1-amine]
3.31 µM | CC(C)c1ccc2[nH]c([C@@H](N)CC(N)=O)nc2c1 [Example 95, (3S)-3-Amino-3-[5-(propan-2-yl)-1H-benzimidazol-2-yl]propanamide]
0.188 µM | CO[C@H](C)[C@H](N)c1nc2cc(CC(C)(C)C)c(F)cc2[nH]1 [Example 96, (1R,2R)-1-[5-(2,2-Dimethylpropyl)-5-fluoro-1H-benzimidazol-2-yl]-2-methoxypropan-1-amine]
0.151 µM | CC[C@@H](N)c1nc2cc(C(C)(C)C)ccc2[nH]1 [Example 97, (1R)-1-(5-tert-Butyl-1H-benzimidazol-2-yl)propan-1-amine]
1.35 µM | C[C@@H](O)[C@H](N)c1nc2c(F)c(-c3ccc(C#N)cc3)ccc2[nH]1 [Example 98, 4-{2-[(1R,2R)-1-Amino-2-hydroxypropyl]-4-fluoro-1H-benzimidazol-5-yl}benzonitrile]
2.49 µM | C[C@@H](O)[C@H](N)c1nc2c(Cl)c(-c3ccc(C#N)cc3)ccc2[nH]1 [Example 99, 4-{2-[(1R,2R)-1-Amino-2-hydroxypropyl]-4-chloro-1H-benzimidazol-5-yl}benzonitrile]
0.0825 µM | C[C@@H](O)[C@H](N)c1nc2cc(-c3ccc(C#N)cc3C(F)(F)F)ccc2[nH]1 [Example 100, 4-{2-[(1R,2R)-1-Amino-2-hydroxypropyl]-1H-benzimidazol-5-yl}-3-(trifluoromethyl)benzonitrile]
0.2 µM | C[C@@H](O)[C@H](N)c1nc2cc(-c3ccc(C#N)cc3F)ccc2[nH]1 [Example 101, 4-{2-[(1R,2R)-1-Amino-2-hydroxypropyl]-1H-benzimidazol-5-yl}-3-fluorobenzonitrile]
0.071 µM | CC(C)(C)c1ccc2[nH]c([C@@H](N)C(C)(C)O)nc2c1 [Example 102, (1R)-1-Amino-1-(5-tert-butyl-1H-benzimidazol-2-yl)-2-methylpropan-2-ol]
0.0699 µM | [2H][13C]([2H])([2H])[C@@H](C(N)=O)[C@H](N)c1nc2cc(C(C)(C)C)ccc2[nH]1 [Example 105, (2R,3S)-3-Amino-3-(5-tert-butyl-1H-benzimidazol-2-yl)-2-(^13CD3-methyl)propanamide]
0.207 µM | CNC(=O)[C@H](C)[C@H](N)c1nc2cc(C(C)(C)C)ccc2[nH]1 [Example 108, (2R,3S)-3-Amino-3-(6-tert-butyl-1H-benzimidazol-2-yl)-N,2-dimethylpropanamide]
0.0561 µM | C[C@@H](C(N)=O)[C@H](N)c1nc2cc(-c3ccc(C#N)c(F)c3)ccc2[nH]1 [Example 109, (2R,3S)-3-Amino-3-[5-(4-cyano-3-fluorophenyl)-1H-benzimidazol-2-yl]-2-methylpropanamide]
0.233 µM | C[C@@H](C(N)=O)[C@H](N)c1nc2c(Cl)c(-c3ccc(C#N)c(F)c3)ccc2[nH]1 [Example 110, (2R,3S)-3-Amino-3-[4-chloro-5-(4-cyano-3-fluorophenyl)-1H-benzimidazol-2-yl]-2-methylpropanamide]
